Consider 1 molecule from US20250152580A1, “METHODS FOR TREATING IMMUNE DISEASES” (Ascentage Pharma (Suzhou) co., Ltd., priority 2022, published 2025).

Assay [1] concerns IL-23 induced psoriasis model. As to the kind of experiment: IL-23 induced psoriasis model in C57BL/6 mice. It counts as in vivo. To be noted: Cpd. 4 30 mg/kg po qd day 1-14, compared with Vehicle (0.44 mm day 14). From the text:
IL-23 stimulates and promotes differentiation of Th17 cells. IL-23 is a heterodimeric cytokine with two subunits. It drives the Th17 response by its binding and signaling through its receptor subunits. When the IL-23R is activated, it promotes the development of Th17 cells and the resulting production of cytokines such as IL-17A, IL-17F, and IL-22, all which are involved in mediating psoriasiform changes.
C57BL/6 mice (7-8 weeks old) were obtained from Vital River Laboratory Animal Technology Co., Ltd. Animals were housed and handled in a temperature-controlled environment with a 12-h light/12-h dark cycle. A total of 40 mice were assigned to 4 groups by randomization based on body weight.
The first day of IL-23 injection is considered as Day 1. Intradermal injection of 20 μL PBS containing 500 ng recombinant mouse IL-23 into the right ear of anesthetized mice using a 30-gauge needle every other day for 14 days (Day 1, Day 3, Day 5, Day 7, Day 9, Day 11, Day 13), 7 times in total. The G1 normal control group intradermal injected with 20 μL PBS.
Mice in Group 1 and Group 2 were treated with vehicle for 14 days (po, qd, from day 1 to day 14). Mice in Group 3 were treated with 30 mg/kg Cpd. 4 for 14 days (po, qd, from day 1 to day 14). […]
Ear thickness of mice was measured in Day 1, 3, 5, 7, 9, 11, 13 and Day 14. […]

A further assay relates to OVA induced asthma model. As to the kind of experiment: OVA (ovalbumin) induced asthma model in Balb/cA mice. It counts as in vivo. To be noted: for pathological score in lung tissues (H&E): vehicle 4.08±0.23. From the text:
Ovalbumin (OVA)-sensitized and challenged BALB/c mice are widely used as an asthma model and are characterized by high levels of serum IgE, airway inflammation, epithelial hypertrophy, goblet cell hyperplasia, and AHR, which are similar to the features observed in human allergic asthma.
Female Balb/cA mice (8 weeks old) were obtained from Shanghai Jihui Laboratory Animal Co. Ltd. Animals were housed and handled in a temperature-controlled environment with a 12-h light/12-h dark cycle. A total of 66 mice were assigned to 6 groups by randomization based on body weight.
Mice in Group 2 are intraperitoneally immunized with OVA (25 μg) emulsified in Imject alum (2.0 mg of Al[OH]3) on day 1. During this sensitization phase, the mice produce anti-OVA IgE antibodies, which bind IgE receptors on mast cells. After this sensitization, the mice are intratracheally challenged with OVA from day 8 today 14, resulting in OVA cross-linked IgE on mast cells and leading to degranulating mast cells. Mice then develop clinical features of asthma. The mice in the Group 1 normal control group were sensitized and challenged with […] (without OVA).
Mice in Group 1 and Group 2 were treated with vehicle for 7 days (po, qd, from day 8 to day 14). Mice in Group 3 were treated with 50 mg/kg Cpd. X for 8 days (iv, biw, day 1 and day 4). Mice in Group 4 were treated with 30 mg/kg Cpd. 4 for 7 days (po, qd, from day 8 to day 14). Mice in Group 5 were treated with 100 mg/kg Cpd. 4 for 7 days (po, qd, from day 8 to day 14). 3 mg/kg dexamethasone was used as positive control which was orally administered to mice in Group 6 for 7 days (qd, from day 8 to day 14). The protocols and procedures involving the care and use of animals were approved by the Institutional Animal Care and Use Committee (IACUC) at KCI (Suzhou, China).
Airway responsiveness was determined invasively based on lung resistance.
After challenge with aerosolized methacholine. Briefly, mice were challenged with methacholine aerosol in increasing concentrations (0, 6.25, 12.5, and 25 mg/mL in saline) on day 13 by using the noninvasive pulmonary function instrument. Data on lung resistance were continuously collected, and mean values were selected to express changes in airway function and regarded as one form of inflammation expression. Data are presented as the airway stenosis index (penh).
Twenty-four hours after the final OVA challenge (on day 15), mice were killed, and BAL cells were collected by means of slow injection of ice-cold PBS into the trachea, which was repeated 3 times. Numbers of cells in BAL fluid were counted with a chamber. Number of eosinophils in a total of 100 cells was counted under a microscope. Results are expressed as percentage of eosinophils of BAL fluid.
Twenty-four hours after the final OVA challenge (on day 15), mice were killed, and the serum was collected. The OVA-specific IgE levels were measured with the method of enzyme linked immunosorbent assay (ELISA) according to manufacturer protocol.
Twenty-four hours after the final OVA challenge (on day 15), mice were killed, and the lung tissue samples were collected and fixed in 4% paraformaldehyde. Then, they were embedded in paraffin and cut into […] sections for histopathological analysis. Lung sections were then stained with hematoxylin and eosin (H&E) to calculate the inflammatory changes. The histopathological score was evaluated microscopically in a blinded manner. Five arbitrarily selected fields of each mouse were photographed with an optical microscope and the images were determined and analyzed in detail. […]

[2] abbreviates: day 15, Cpd. 4 30 and 100 mg/kg po qd, Cpd. X 50 mg/kg iv biw, dexamethasone 3 mg/kg po qd, compared with Vehicle.

“Also recorded” adds a separate entry of the source.

Consider `O=C(NS(=O)(=O)c1ccc(NC[C@H]2COCCO2)c([N+](=O)[O-])c1)c1ccc(N2CCN(CC3=C(c4ccc(Cl)cc4)CC4(CCC4)CC3)CC2)cc1Oc1cnc2[nH]ccc2c1` [Cpd. 4, (S)-N-((4-(((1,4-dioxan-2-yl)methyl)amino)-3-nitrophenyl)sulfonyl)-2-((1H-pyrrolo[2,3-b]pyridin-5-yl)oxy)-4-(4-((6-(4-chlorophenyl)spiro[3.5]non-6-en-7-yl)methyl)piperazin-1-yl)benzamide], for which, in assay [1], the ear thickness entry is reported as “significantly reducing the ear thickness; also recorded: significantly reduced”. Moreover, in the assay on OVA induced asthma model (30 mg/kg po qd day 8-14, day 15), the “pathological score in lung tissues (H&E)” value came to 2.64±0.08. Also, the “pathological score in lung tissues (H&E)” value with OVA induced asthma model (100 mg/kg po qd day 8-14, day 15) amounted to 2.66±0.17. In the assay on OVA induced asthma model (Cpd. 4 and Cpd. X, compared with Vehicle), the “pathological score in lung tissues (in words)” value is on record as “significantly ameliorated”. Also, in the assay with OVA induced asthma model (setting [2]), the “percentage of eosinophils in BALF” value is “downregulated markedly; also recorded: significantly downregulated” and the “serum OVA-specific IgE (ELISA)” value is “significantly reduced; also recorded: significantly decreased”. For the same molecule, the “airway stenosis index (penh), airway hyper-responsiveness (AHR)” value with OVA induced asthma model (methacholine challenge day 13, Cpd. 4 30 and 100 mg/kg po qd day 8-14, Cpd. X 50 mg/kg iv biw, dexamethasone 3 mg/kg po qd, compared with Vehicle) is “significant inhibitory activity; also recorded: significantly reduced”.
